Measurements reported in US10537575B2, “Phosphodiesterase inhibitors to repair brain and/or retinal injury in human newborns” (priority 2016, dated 2020).

Experiments:
[1] = tested on: Long-Evans rat pups (neonatal HI); assay: Retinal immunohistochemistry after neonatal HI; type: in vivo; conditions: sildenafil 2, 10 or 50 mg/kg 7 days, P30
Source text: Neonatal hypoxia-ischemia (HI) was induced in male Long-Evans rat pups at postnatal day 10 (P10) by left common carotid ligation followed by 2-hour exposure to 8% oxygen. […] At P30, rats were sacrificed and their eyes were extracted.

PDE6 = conditions: known; cited from earlier work
[2] = Body weight and animal deaths in Vannucci rat model of term neonatal HIE
Description: A well-established Vannucci rat model of term neonatal HIE, which combined a left common carotid artery ligation and a 2 hour exposure to hypoxia (8% oxygen) in 10-day-old (P10) rat pups, was used for the experiments, since this model is generally recognized to mimic the brain injuries observed in human term asphyxiated newborns. Briefly, the 10-day-old male Long-Evans rat pups were weighed and then deeply anesthetized with an intraperitoneal injection of fentanyl (0.2 mg/kg) and midazolam (1 mg/kg) to the point of unresponsiveness to noxious stimulation. Lidocaine-prilocaine cream (EMLA®; AstraZeneca Inc.) was applied to the ventral neck skin 30 minutes before surgery. The skin was cleaned with 2% chlorhexidine solution followed by 70% alcohol. A vertical incision was made along the ventral surface of the neck. The left common carotid artery was located, isolated, and then ligated with a single tight suture. Following the unilateral ligation, the skin incision was closed with an adhesive (n-butyl cyanoacrylate; 3 M VetBond Tissue Adhesive®; 3 M USA). The anesthesia was reversed with an intraperitoneal injection of naloxone (0.1 mg/kg) and flumazenil (1 mg/kg). […] For each rat pup, anesthesia time and surgical time were kept to a minimal time of less than 5-10 minutes. The pups were allowed to recover for approximately 1.5 h after surgery and then were placed in a sealed hypoxia chamber (Plastic Concepts, North Billerica, USA). The sealed chamber was infused with nitrogen until a level of 8% oxygen was reached, which was maintained for 2 h (oxygen analyzer model 600, Engineered Systems & Designs, Newark, Del.). The pups were allowed to recover for 30 minutes and then were returned to their cages with the mother. The rats undergoing the whole procedure were considered as the hypoxic-ischemic (HI) group (n=10-12 animals/groups). Sham operated rat pups (identical procedure as the HI group, but not the ligation and hypoxia) served as the control group (n=10-12 animals/groups). The sample size of the current study was a sample size of convenience, subject to restrictions imposed by the institutional ethics committee that reviewed it, and based on the principles of the 3Rs (replacement, reduction, and refinement). Sham rat pups received the same sedation as HI rat pups permitting to control for the effect of sedation on the brain. Normal body temperature of both sham and HI rat pups, while they were separated from the mother, was maintained during the whole procedure (i.e., surgery±hypoxia) using warming blankets (Cincinnati Sub-Zero, Cincinnati, USA).

[3] = tested on: Long-Evans rat pups (term neonatal HIE model); assay: Retinal histology, thicknesses of retinal layers at P30; type: in vivo; parameters: Effect size, RPE thickness / Effect size, OS thickness / Effect size, IS thickness / Effect size, ONL thickness / Effect size, OPL thickness / Effect size, INL thickness / Effect size, IPL thickness / Effect size, total thickness: scale not given here; conditions: for Effect size, INL thickness / Effect size, IPL thickness / Effect size, IS thickness / Effect size, ONL thickness / Effect size, OPL thickness / Effect size, OS thickness / Effect size, RGC/FL thickness / Effect size, RPE thickness / Effect size, total thickness: compared to HI vehicle rat pups; for INL thickness / IPL thickness / IS thickness / ONL thickness / OPL thickness / OS thickness (outer segment) / RGC/FL thickness / RPE thickness / Total thickness: left eye, P30
Description: A well-established rat model of term neonatal HIE (Vannucci model) (Patel S D et al., 2014, Patel S D et al., 2015; […] et al., 2009; […] et al., 2009; Rice J E, 3rd et al., 1981) and produces concomitant retinal injury (Jung S et al., 2015). Rats undergoing both the ligation and hypoxia were considered the HI group. Sham operated rats (identical procedure as the HI group, but without ligation and hypoxia) served as the control group. […] Different doses of sildenafil-i.e., low (2 mg/kg), medium (10 mg/kg), and high (50 mg/kg)-were used in the HI and sham rat pups (n=4-7 animals/group). At P30, the animals were sacrificed, and the eyes were enucleated. Retinal histology was performed as per a previously described protocol (Jung S et al., 2015). […] Then, the retinal layer thickness was plotted against eccentricity to obtain the spider graphs (FIG. 7B).

## CCCc1nn(C)c2c(=O)[nH]c(-c3cc(S(=O)(=O)N4CCN(C)CC4)ccc3OCC)nc12 [sildenafil]
[1]
  neuroinflammation, number of astrocytes in retina: decreasing the number of astrocytes
  number of retinal ganglion cells and bipolar cells: restored the number of retinal ganglion cells and bipolar cells
PDE6
  PDE6 inhibition: inhibits PDE6, but with a reduced efficiency
[2]; HI group, sildenafil 2 mg/kg
  incidence of animal deaths: 4/12
[2]; HI group, sildenafil 10 mg/kg
  incidence of animal deaths: 2/11
[2]; HI group, sildenafil 50 mg/kg
  incidence of animal deaths: 3/11
[2]; sham groups
  incidence of animal deaths: no animals died
[3]; HI, 10 mg/kg and 50 mg/kg doses
  thicknesses of affected retinal layers, response: significantly improved response in terms of thicknesses of all the affected layers
[3]; HI, Sild 2 mg/kg
  Effect size, INL thickness: 4.94
  Effect size, IPL thickness: 0.11
  Effect size, IS thickness: 2.16
  Effect size, ONL thickness: 0.71
  Effect size, OPL thickness: 4.91
  Effect size, OS thickness: 0.40
  Effect size, RGC/FL thickness: 1.37
  Effect size, RPE thickness: 0.25
  Effect size, total thickness: 14.72
  INL thickness: 14.71 ± 2.57 μm
  IPL thickness: 2.95 ± 2.60 μm
  IS thickness: 23.83 ± 3.12 μm
  ONL thickness: 70.88 ± 2.88 μm
  OPL thickness: 5.72 ± 3.05 μm
  OS thickness (outer segment): 38.14 ± 3.66 μm
  RGC/FL thickness: 2.28 ± 2.28 μm
  RPE thickness: 8.88 ± 0.24 μm
  Total thickness: 167.28 ± 2.63 μm
[3]; HI, Sild 10 mg/kg
  Effect size, INL thickness: 19.74
  Effect size, IPL thickness: 42.08
  Effect size, IS thickness: −7.24
  Effect size, ONL thickness: −19.22
  Effect size, OPL thickness: 8.67
  Effect size, OS thickness: −8.55
  Effect size, RGC/FL thickness: 18.37
  Effect size, RPE thickness: −0.73
  Effect size, total thickness: 53.09
  INL thickness: 29.50 ± 1.70 μm
  IPL thickness: 44.93 ± 7.35 μm
  IS thickness: 14.43 ± 1.15 μm
  ONL thickness: 50.95 ± 0.76 μm
  OPL thickness: 9.48 ± 0.38 μm
  OS thickness (outer segment): 29.18 ± 2.14 μm
  RGC/FL thickness: 19.28 ± 3.36 μm
  RPE thickness: 7.89 ± 0.35 μm
  Total thickness: 205.64 ± 14.20 μm
[3]; HI, Sild 50 mg/kg
  Effect size, INL thickness: 21.65
  Effect size, IPL thickness: 41.40
  Effect size, IS thickness: −7.50
  Effect size, ONL thickness: −17.36
  Effect size, OPL thickness: 8.95
  Effect size, OS thickness: −9.86
  Effect size, RGC/FL thickness: 16.59
  Effect size, RPE thickness: −0.59
  Effect size, total thickness: 53.25
  INL thickness: 31.42 ± 1.66 μm
  IPL thickness: 44.25 ± 11.86 μm
  IS thickness: 14.16 ± 0.25 μm
  ONL thickness: 52.81 ± 1.06 μm
  OPL thickness: 9.76 ± 0.84 μm
  OS thickness (outer segment): 27.87 ± 2.09 μm
  RGC/FL thickness: 17.50 ± 4.07 μm
  RPE thickness: 8.03 ± 0.27 μm
  Total thickness: 205.80 ± 14.22 μm
[3]; HI, low-dose of sildenafil
  topographic retinal thickness (spider graph): did not seem to reverse any of the HI-induced changes in retinal thickness, except in the inferior retina
[3]; HI, medium and high doses of sildenafil
  topographic retinal thickness (spider graph): nearly normal inner retina at almost all retinal eccentricities
[3]; present example (rat pups)
  photoreceptor degeneration: did not induce photoreceptor degeneration
